Legend:
Format in all cases: cell-based, human
[1] = system: HLA-DR expression on MCC cell lines; test: Flow cytometry assessment of HLA-DR expression in MCC lines at baseline and after IFN-γ; conditions: MCC-301 line
Procedure: FIG. 1N is a graph showing flow cytometry assessment of HLA-DR expression in all 11 MCC lines, both at baseline (light pink) and after IFN-γ treatment (red).
Cells were dissociated with Versene and incubated with 5 μL Human TruStain FcX (Fc receptor blocking solution; Biolegend, Dedham, Mass.) per million cells in […] at room temperature for 10 min. Fluorochrome-conjugated antibodies or respective isotype controls were immediately added and incubated for another 30 min at 4° C. Cells were then washed once with PBS and resuspended in PBS containing 4% paraformaldehyde and analyzed on LSR Fortessa cytometers. Additional steps were described for individual experiments as below. For upregulation of HLA Class I experiment, 5×10^5 MCC cells were treated with increasing doses of IFNα2b, IFN3, IFNγ for 24 hours, or MEK inhibitors and DMSO for 72 hours before staining with W6/32 and Live/Dead as above.

[2] = system: HLA class I bound peptides of MCC cell lines; test: HLA class I immunoprecipitation and LC-MS/MS immunopeptidome of MCC tumors and cell lines +/- IFNγ
Excerpt: CL=cell line (left). Correlation heatmap of peptide sequences between MCC lines at baseline and after IFN-γ treatment in motif space (right).
HLA molecules are immunoprecipitated from tumor and cell line material, peptides are eluted from HLA complex and analyzed by LC-MS/MS. After database searching, peptides are assigned to their most likely allele by prediction in HLAthena.
Up to 40 million MCC cells were immunoprecipitated. Briefly, MCC cells were harvested and lysed in ice-cold lysis buffer containing […] (pH 8.0), 1 mM EDTA (pH 8.0), 0.1M sodium chloride, Triton X-100, 0.06M octyl 3-d-glucopyranoside, 100 U/mL DNAse I, 1 mM phenylmethanesulfonyl fluoride (all from Sigma Aldrich), protease inhibitor cocktail (Roche Diagnostics, Indianapolis, Ind.). Cell lysates were centrifuged at 12,700 rpm at 4° C. for 22 min. […] Peptides of up to three IPs were combined, acid eluted, and analyzed using LC/MS/MS as described previously (Abelin, Keskin Immunity). […] Peptides were eluted in a 6-30% gradient (EasyLC 1000 or 1200, ThermoFisher Scientific) and analyzed on a QExactive Plus or Fusion Lumos (ThermoFisher Scientific). […]
For detection of the large T antigen peptide, 3 Ips of a 367 Cell line treated with IFNγ were pooled, acid eluted, fractionated using stage tip basic reverse phase separation and fractions were analyzed on a Fusion Lumos equipped with a FAIMSpro interface (Klaeger et al., in preparation).
Mass spectra were interpreted using Spectrum Mill software package v7.1 pre-Release (Agilent Technologies, Santa Clara, Calif.). […] MS/MS spectra were searched against a protein sequence database that contained 98,298 entries, including all UCSC Genome Browser genes with hg19 annotation of the genome and its protein coding transcripts (63,691 entries), common human virus sequences (30,181 entries), recurrently mutated proteins observed in tumors from 26 tissues (4,167 entries), 264 common laboratory contaminants as well as protein sequences containing somatic mutations detected in MCC cell lines. […]

class I gene transcripts = test: RNA-seq of MCC lines before and after IFN-γ stimulation
Procedure: For samples from the MCC tumors and newly generated cell lines, RNA was first assessed for quality using the Agilent Bioanalyzer (DV200 metric). 100 ng of RNA were used as the input for first strand cDNA synthesis using Superscript III reverse transcriptase and Illumina's TruSeq RNA Access Sample Prep Kit. Synthesis of the second strand of cDNA was followed by indexed adapter ligation with UMI (unique molecular index) adaptors. Subsequent PCR amplification enriched for adapted fragments. Amplified libraries were quantified, normalized, pooled, and hybridized with exome targeting oligos. Following hybridization, bead clean-up, elution, and PCR was performed to prepare library pools for sequencing on Illumina flowcell lanes. Transcriptomes were sequenced to a coverage of at least 50 million reads in pairs.
Gene counts were obtained from BAM files using featureCounts version 2.0.0. Very lowly expressed genes with average count across samples less than 1 were excluded from analysis. […]
Differential expression analysis was carried out between IFN-γ plus and minus samples (adjusting for viral status as a covariate) using the negative binomial GLM Wald test of DESeq2, where significance was assessed using the p-values adjusted for multiple comparisons under default settings. […]

Substance: IFN-y: type II interferon, recombinant human, used to treat MCC cells
- HLA-DR expression [1]: inducible HLA-DR expression
- number of detected peptides presented on HLA Class I ([2]; tumor derived cell lines, FIG. 3B): increased

Substance: IFN-γ: interferon gamma used to stimulate MCC cell lines
- abundance of class I bound peptides, median fold increase ([2]; across 4 cell lines, after IFN-γ stimulation vs baseline): 25 fold
- frequencies of peptides mapping to each HLA allele ([2]; cell lines exposed or not to IFN-γ): increase in HLA-B-presented peptides
- class I gene transcripts (class I gene transcripts; MCC lines, IFN-γ treatment): markedly upregulated
- HLA-A, -B, and -C mRNA upregulation (class I gene transcripts; MCC-336 (non-IFN-γ-responsive)): lack of IFN-induced HLA-A, -B, and -C mRNA upregulation
